Experimental data: EP4467141A1, “PYRAZOLO-QUINOLINES AS SELECTIVE INHIBITORS OF GENOTOXIC STRESS-INDUCED IKK/NF- KB PATHWAYS FOR CANCER THERAPY” (Max-Delbrück-Centrum für Molekulare Medizin in der …, priority 2023, dated 2024)

Experiments:
Experiment in all cases: Kinase panel study
Assay type in all cases: biochemical
Settings in all cases: read-out: Percentage of inhibition; for inhibition at 1 µM: 1000nM; for inhibition at 10 µM: 10000nM
[1] = target: T1, NEK1 (Homo sapiens, UniProt Q96PY6)
T1 construct: purchased Thermo Fisher Scientific
T1 sequence (Q96PY6 1-1258): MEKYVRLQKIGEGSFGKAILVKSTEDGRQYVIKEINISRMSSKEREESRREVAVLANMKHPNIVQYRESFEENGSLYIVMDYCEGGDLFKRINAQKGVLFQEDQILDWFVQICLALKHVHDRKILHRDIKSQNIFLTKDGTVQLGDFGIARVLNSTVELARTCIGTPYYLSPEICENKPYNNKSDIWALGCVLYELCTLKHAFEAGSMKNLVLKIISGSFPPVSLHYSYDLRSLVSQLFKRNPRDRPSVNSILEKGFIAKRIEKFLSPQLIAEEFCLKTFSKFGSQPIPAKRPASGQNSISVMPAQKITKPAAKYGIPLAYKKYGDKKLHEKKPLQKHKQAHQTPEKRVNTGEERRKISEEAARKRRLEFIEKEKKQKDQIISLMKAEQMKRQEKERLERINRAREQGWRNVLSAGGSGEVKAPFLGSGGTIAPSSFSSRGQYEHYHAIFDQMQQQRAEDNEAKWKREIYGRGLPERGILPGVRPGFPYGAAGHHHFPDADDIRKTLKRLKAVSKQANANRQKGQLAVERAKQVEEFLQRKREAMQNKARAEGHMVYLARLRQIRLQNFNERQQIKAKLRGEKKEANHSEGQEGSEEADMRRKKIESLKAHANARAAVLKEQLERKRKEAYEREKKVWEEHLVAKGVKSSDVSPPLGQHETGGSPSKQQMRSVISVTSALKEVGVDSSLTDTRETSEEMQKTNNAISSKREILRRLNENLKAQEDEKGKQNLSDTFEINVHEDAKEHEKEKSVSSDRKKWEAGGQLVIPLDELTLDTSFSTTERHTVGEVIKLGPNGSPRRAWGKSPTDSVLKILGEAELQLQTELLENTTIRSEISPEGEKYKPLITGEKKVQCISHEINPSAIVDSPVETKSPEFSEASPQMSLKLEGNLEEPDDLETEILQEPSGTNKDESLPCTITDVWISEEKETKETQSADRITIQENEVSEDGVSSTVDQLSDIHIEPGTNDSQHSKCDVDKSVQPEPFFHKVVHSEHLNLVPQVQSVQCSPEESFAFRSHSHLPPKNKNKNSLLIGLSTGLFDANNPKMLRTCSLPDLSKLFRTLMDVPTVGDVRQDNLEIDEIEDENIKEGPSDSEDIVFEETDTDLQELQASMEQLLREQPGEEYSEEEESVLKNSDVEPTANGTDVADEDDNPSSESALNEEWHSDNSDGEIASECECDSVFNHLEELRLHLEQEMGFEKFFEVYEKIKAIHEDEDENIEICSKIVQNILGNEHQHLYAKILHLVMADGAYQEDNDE
Summary of the method: (§1)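 Compounds were tested in vitro against the kinase panel by a service lab. Assays followed standard ZLyte or Adapta protocols. Activity was recorded as % inhibition at 10 µM or 1 µM, with IC50 values where determined.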

[2] = target: T2, PEAK1 (Homo sapiens, UniProt Q9H792)
T2 construct: purchased Thermo Fisher Scientific
T2 sequence (Q9H792 whole entry): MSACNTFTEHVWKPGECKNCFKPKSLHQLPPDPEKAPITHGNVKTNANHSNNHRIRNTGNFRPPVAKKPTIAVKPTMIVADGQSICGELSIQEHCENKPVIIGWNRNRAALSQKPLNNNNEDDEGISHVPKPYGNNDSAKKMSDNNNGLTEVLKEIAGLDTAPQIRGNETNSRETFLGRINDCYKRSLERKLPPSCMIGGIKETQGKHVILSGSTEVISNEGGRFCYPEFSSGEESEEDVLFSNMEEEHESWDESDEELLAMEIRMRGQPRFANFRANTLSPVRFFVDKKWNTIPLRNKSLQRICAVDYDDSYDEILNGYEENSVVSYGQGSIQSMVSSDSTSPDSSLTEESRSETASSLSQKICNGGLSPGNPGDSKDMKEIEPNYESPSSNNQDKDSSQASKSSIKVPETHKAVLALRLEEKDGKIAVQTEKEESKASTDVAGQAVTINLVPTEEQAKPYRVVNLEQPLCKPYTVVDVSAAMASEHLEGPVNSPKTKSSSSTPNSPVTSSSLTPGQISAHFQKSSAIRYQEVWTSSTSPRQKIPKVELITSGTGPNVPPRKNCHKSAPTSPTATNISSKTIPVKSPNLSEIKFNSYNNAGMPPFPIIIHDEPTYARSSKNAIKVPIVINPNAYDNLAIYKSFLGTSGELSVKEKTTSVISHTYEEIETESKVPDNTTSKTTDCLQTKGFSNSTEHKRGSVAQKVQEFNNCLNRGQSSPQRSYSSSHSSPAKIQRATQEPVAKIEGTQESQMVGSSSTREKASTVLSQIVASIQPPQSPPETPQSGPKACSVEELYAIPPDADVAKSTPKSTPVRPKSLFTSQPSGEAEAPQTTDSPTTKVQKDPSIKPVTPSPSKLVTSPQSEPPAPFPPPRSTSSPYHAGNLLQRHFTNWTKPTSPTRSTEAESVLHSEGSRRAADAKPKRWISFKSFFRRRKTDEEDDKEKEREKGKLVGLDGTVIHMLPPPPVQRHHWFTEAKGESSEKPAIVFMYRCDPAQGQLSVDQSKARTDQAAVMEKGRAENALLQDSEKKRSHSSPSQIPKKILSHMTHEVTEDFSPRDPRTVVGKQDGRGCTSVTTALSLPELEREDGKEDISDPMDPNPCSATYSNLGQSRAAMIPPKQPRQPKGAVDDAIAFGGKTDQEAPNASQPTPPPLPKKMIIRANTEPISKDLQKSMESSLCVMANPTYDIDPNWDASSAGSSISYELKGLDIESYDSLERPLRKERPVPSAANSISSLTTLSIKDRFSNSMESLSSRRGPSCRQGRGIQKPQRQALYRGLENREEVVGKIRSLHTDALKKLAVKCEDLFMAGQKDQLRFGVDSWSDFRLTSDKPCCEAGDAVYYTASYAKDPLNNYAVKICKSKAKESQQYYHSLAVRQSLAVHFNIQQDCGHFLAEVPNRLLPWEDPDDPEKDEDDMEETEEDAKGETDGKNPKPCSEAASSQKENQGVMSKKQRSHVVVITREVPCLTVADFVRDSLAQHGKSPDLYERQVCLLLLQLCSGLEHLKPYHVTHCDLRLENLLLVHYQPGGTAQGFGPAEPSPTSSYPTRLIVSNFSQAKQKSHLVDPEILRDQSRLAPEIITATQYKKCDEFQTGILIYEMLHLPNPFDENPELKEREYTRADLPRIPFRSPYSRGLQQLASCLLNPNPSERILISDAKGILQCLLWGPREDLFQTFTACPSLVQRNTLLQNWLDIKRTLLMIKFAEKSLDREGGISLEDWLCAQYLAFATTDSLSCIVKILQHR
Summary of the method: as §1

[3] = target: T3, PRKCD (PKC delta) (Homo sapiens, UniProt Q05655)
T3 construct: purchased Thermo Fisher Scientific
T3 sequence (Q05655 whole entry): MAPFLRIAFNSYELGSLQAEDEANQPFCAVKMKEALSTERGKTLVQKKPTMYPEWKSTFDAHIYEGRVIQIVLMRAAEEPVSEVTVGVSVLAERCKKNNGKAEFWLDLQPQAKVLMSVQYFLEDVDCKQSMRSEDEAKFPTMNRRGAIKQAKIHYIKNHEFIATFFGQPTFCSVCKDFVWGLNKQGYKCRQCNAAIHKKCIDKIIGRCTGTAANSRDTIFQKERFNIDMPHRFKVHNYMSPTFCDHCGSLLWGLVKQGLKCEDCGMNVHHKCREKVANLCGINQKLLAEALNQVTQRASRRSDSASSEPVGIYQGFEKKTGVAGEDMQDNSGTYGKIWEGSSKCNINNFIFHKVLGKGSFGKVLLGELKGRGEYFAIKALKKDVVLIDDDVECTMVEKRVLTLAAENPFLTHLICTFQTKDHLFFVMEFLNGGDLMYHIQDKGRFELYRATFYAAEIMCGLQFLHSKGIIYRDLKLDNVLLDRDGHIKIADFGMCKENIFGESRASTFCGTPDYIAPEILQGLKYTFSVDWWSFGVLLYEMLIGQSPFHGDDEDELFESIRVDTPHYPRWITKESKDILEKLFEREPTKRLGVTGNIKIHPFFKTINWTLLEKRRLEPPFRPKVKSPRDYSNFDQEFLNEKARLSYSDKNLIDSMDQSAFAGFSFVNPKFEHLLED
Summary of the method: as §1

[4] = target: T4, FGFR1 (Homo sapiens, UniProt P11362)
T4 construct: purchased Thermo Fisher Scientific
T4 sequence (P11362 22-822): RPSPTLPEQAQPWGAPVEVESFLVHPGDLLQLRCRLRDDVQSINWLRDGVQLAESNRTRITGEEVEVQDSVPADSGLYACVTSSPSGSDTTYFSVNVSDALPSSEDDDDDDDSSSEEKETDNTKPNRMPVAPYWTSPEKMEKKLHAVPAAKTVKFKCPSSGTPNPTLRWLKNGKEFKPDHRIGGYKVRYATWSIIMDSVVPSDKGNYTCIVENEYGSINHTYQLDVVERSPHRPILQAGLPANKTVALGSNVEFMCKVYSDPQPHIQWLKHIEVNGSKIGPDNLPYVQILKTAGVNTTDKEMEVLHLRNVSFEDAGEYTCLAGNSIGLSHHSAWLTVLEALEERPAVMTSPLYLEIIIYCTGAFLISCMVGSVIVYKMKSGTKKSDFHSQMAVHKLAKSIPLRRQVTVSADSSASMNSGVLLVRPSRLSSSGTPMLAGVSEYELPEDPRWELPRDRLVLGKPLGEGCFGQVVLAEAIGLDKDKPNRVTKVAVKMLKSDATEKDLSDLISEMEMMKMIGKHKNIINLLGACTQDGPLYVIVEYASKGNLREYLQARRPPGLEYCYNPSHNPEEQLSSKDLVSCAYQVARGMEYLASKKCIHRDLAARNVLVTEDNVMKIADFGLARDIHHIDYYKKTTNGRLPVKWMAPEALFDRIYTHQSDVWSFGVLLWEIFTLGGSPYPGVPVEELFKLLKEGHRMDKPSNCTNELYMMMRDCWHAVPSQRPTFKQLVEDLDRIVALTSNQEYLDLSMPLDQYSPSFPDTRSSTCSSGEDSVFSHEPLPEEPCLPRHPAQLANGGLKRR
Summary of the method: as §1

[5] = target: T5, RET V804L (Homo sapiens, UniProt P07949, V804L)
T5 construct: purchased Thermo Fisher Scientific
T5 sequence (P07949 29-1114 V804L): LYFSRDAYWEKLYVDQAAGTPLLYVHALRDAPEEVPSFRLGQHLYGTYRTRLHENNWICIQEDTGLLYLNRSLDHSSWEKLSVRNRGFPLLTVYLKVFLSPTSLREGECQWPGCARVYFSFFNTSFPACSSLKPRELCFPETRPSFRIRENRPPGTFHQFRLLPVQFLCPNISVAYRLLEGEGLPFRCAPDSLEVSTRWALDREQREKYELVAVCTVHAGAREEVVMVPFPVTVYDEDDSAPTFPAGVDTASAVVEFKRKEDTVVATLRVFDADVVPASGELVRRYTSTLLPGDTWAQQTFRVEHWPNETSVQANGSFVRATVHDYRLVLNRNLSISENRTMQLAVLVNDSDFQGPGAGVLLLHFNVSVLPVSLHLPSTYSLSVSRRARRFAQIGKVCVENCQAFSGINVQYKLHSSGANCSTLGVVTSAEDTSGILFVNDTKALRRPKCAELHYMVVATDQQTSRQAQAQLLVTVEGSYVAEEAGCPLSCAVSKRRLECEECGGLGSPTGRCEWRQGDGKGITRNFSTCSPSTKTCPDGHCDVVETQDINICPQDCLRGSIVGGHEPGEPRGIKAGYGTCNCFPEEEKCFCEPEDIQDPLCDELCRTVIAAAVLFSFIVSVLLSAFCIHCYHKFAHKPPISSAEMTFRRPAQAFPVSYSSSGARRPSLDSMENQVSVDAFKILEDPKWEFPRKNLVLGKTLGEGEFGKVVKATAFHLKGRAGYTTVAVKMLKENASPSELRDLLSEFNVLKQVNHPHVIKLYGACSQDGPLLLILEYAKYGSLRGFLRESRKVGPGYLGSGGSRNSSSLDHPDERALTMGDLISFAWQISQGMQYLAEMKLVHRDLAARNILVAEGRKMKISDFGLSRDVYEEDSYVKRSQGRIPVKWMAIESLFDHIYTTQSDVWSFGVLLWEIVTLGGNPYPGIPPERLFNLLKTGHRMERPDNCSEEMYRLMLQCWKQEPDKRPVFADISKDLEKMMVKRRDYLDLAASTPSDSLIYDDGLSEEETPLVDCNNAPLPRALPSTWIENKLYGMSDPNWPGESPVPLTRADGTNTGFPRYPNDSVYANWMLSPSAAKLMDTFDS
Summary of the method: as §1

[6] = target: T6, RET V804E (Homo sapiens, UniProt P07949, V804E)
T6 construct: purchased Thermo Fisher Scientific
T6 sequence (P07949 29-1114 V804E): as the sequence (P07949 29-1114 V804L) above, with L776E counted along it
Summary of the method: as §1

[7] = target: T7, NEK2 (Homo sapiens, UniProt P51955)
T7 construct: purchased Thermo Fisher Scientific
T7 sequence (P51955 1-445): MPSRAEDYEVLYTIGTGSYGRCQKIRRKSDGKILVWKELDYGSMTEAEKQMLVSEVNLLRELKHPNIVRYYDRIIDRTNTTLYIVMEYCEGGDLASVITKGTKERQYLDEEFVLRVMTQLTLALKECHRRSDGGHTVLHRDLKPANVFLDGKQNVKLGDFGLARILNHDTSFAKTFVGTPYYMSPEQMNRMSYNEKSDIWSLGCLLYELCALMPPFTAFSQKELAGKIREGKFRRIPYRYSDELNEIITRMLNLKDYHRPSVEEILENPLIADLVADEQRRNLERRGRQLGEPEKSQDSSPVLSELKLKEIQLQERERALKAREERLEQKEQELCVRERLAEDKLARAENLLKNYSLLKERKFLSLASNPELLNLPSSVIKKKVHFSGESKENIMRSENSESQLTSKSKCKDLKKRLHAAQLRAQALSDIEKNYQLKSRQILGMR
Summary of the method: as §1

[8] = target: T8, CSNK1G2 (CK1 gamma 2) (Homo sapiens, UniProt P78368)
T8 construct: purchased Thermo Fisher Scientific
T8 sequence (P78368 whole entry): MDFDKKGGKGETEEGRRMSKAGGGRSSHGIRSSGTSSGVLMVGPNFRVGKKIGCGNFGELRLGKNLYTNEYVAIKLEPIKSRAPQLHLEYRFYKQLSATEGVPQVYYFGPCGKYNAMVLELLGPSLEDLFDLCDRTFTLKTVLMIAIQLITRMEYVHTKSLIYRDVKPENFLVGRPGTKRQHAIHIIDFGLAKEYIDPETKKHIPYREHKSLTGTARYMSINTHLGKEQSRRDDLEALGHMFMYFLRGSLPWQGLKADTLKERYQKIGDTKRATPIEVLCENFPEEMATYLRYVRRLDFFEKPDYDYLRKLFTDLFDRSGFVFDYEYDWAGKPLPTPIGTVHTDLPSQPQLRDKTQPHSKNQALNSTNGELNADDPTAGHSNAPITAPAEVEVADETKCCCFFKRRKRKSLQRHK
Summary of the method: as §1

SMILES: COc1ccc2c(c1OC)c(=O)n1c3ccc(O)cc3c3ccnc2c31 [MW01, 5-Hydroxy-10,11-dimethoxy-9H-benzo[c]indolo[3,2,1-ij][1,5]naphthyridin-9-one]
- inhibition at 1 µM [1]: 23%
- inhibition at 10 µM [1]: 58%
- inhibition at 1 µM [2]: -1%
- inhibition at 10 µM [2]: 16%
- inhibition at 1 µM [3]: 6%
- inhibition at 10 µM [3]: 17%
- inhibition at 1 µM [4]: 6%
- inhibition at 10 µM [4]: 5%
- inhibition at 1 µM [5]: 15%
- inhibition at 10 µM [5]: 38%
- inhibition at 1 µM [6]: 5%
- inhibition at 10 µM [6]: 17%
- inhibition at 1 µM [7]: -4%
- inhibition at 10 µM [7]: 0%
- inhibition at 1 µM [8]: 22%
- inhibition at 10 µM [8]: 41%

SMILES: COc1ccc2cc3c(N)nn(C(=O)c4cccc(N(C)C)c4)c3nc2c1 [MW05, (3-Amino-7-methoxypyrazolo[3,4-b]quinolin-1-yl)-[3-(dimethylamino)phenyl]methanone]
- inhibition at 1 µM [1]: -1%
- inhibition at 10 µM [1]: 6%
- inhibition at 1 µM [2]: 2%
- inhibition at 10 µM [2]: 0%
- inhibition at 1 µM [3]: 14%
- inhibition at 10 µM [3]: 0%
- inhibition at 1 µM [4]: -1%
- inhibition at 10 µM [4]: -7%
- inhibition at 1 µM [5]: 2%
- inhibition at 10 µM [5]: 0%
- inhibition at 1 µM [6]: 1%
- inhibition at 10 µM [6]: -7%
- inhibition at 1 µM [7]: -3%
- inhibition at 10 µM [7]: 1%
- inhibition at 1 µM [8]: 4%
- inhibition at 10 µM [8]: 13%
